Measurements reported in BindingDB's records for doi:10.1016/j.chembiol.2006.06.007 (University of Wisconsin-Madison, 2006).

How the values were obtained:
Assay in all cases: High-throughput FP Assay
[1] = biological target: T1, UDP-galactopyranose mutase (Klebsiella pneumoniae, UniProt Q762K7)
[2] = biological target: T2, UDP-galactopyranose mutase (Mycobacterium tuberculosis (strain ATCC 25618 / H37Rv), UniProt P9WIQ1)
[3] = biological target: T1, UDP-galactopyranose mutase; remark: listed apart in the source
Method: (§1) To access the ability of compounds to inhibit the catalytic activity of UGM, an HPLC assay was employed. Inhibition constants were determined by monitoring UGM activity at a single substrate concentration while varying inhibitor concentration.

[4] = biological target: T2, UDP-galactopyranose mutase; remark: listed apart in the source
Method: as §1

T1 sequence (Q762K7 whole entry): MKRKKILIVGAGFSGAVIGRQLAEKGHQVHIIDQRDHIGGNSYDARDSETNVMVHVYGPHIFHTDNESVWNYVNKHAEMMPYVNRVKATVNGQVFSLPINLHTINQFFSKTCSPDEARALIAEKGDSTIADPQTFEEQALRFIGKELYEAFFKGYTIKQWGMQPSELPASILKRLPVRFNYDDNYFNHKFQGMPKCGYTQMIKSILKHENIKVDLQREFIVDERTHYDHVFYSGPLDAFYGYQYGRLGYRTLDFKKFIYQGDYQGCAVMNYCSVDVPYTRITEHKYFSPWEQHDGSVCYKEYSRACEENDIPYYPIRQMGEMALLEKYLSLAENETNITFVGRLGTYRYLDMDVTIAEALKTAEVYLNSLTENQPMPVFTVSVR
T2 sequence (P9WIQ1 whole entry): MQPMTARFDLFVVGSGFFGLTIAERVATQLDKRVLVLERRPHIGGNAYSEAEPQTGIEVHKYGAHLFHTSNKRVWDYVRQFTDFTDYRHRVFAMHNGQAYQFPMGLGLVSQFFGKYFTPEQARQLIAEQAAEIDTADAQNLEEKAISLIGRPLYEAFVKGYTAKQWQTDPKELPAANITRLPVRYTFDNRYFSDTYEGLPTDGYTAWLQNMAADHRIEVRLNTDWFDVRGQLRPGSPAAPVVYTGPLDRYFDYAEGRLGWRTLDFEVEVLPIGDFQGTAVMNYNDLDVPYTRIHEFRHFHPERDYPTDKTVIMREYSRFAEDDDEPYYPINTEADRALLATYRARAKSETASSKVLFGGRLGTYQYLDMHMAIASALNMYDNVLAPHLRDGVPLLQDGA

| Compound | Kd [1] [µM] | Kd [2] [µM] | IC50 [3] [µM] | IC50 [4] [µM] |
| --- | --- | --- | --- | --- |
| COc1cccc(/C=C2/SC(=S)N(C(Cc3ccccc3)C(=O)O)C2=O)c1 (stereo unspecified) [Thiazolidinone core, 28] | > 33 | > 33 | – | – |
| O=C1N/C(=N\S(=O)(=O)c2ccccc2)S/C1=C1/C(=O)Nc2ccc([N+](=O)[O-])cc21 [Thiazolidinone core, 5] | 4 | – | 17 | – |
| O=C(O)C(Cc1ccccc1)N1C(=O)/C(=C\c2cccc(F)c2)SC1=S (stereo unspecified) [Thiazolidinone core, 23] | > 33 | > 33 | – | – |
| O=C(O)C(Cc1ccc(O)cc1)N1C(=O)/C(=C\c2cccc(Br)c2)SC1=S (stereo unspecified) [Thiazolidinone core, 17] | > 11.2 | > 33 | – | – |
| O=C(O)C(Cc1ccccc1)N1C(=O)/C(=C/c2cccc(Cl)c2)SC1=S (stereo unspecified) [Thiazolidinone core, 21] | 21.3 | 16 | – | 49 |
| O=C(O)N1C(=O)/C(=C\c2ccccc2)SC1=S [Thiazolidinone core, 31] | > 33 | > 330 | – | – |
| O=C1c2cccc3c([N+](=O)[O-])ccc(c23)C(=O)N1Cc1cccnc1 [Pyridin analog, 11] | – | 8 | – | – |
| CCOC(=O)c1cc(-c2ccc(/C=C3\C(=O)N(c4ccc(S(N)(=O)=O)cc4)N=C3C(F)(F)F)o2)ccc1Cl [Pyrazol analog, 4] | 6.7 | – | – | – |
| O=C(O)C(Cc1ccccc1)N1C(=O)/C(=C\c2cccc(Br)c2)SC1=S (stereo unspecified) [Thiazolidinone core, 6] | 9.4 | 12 | 1.6 | 65 |
| O=C(O)C(Cc1ccccc1)N1C(=O)/C(=C\c2ccccc2)SC1=S (stereo unspecified) [Thiazolidinone core, 29] | > 33 | > 33 | – | – |
| O=C1Nc2ccccc2/C1=C1/SC(=S)N(C(Cc2ccccc2)C(=O)O)C1=O (stereo unspecified) [Thiazolidinone core, 8] | 10.7 | – | 93 | – |
| O=C(O)C(Cc1ccccc1)N1C(=O)/C(=C/c2cccc(Br)c2)SC1=S (stereo unspecified) [Thiazolidinone core, 15] | > 33 | > 33 | – | – |
| O=C(O)C(Cc1ccccc1)N1C(=O)/C(=C/c2cccc(I)c2)SC1=S (stereo unspecified) [Thiazolidinone core, 22] | 6.3 | 6 | – | 41 |
| O=C(O)C(Cc1ccccc1)N1C(=O)/C(=C\c2cccc([N+](=O)[O-])c2)SC1=S (stereo unspecified) [Thiazolidinone core, 26] | > 33 | > 33 | – | – |
| CC(C(=O)O)N1C(=O)/C(=C2/C(=O)Nc3ccccc32)SC1=S (stereo unspecified) [Thiazolidinone core, 19] | > 33 | > 330 | – | – |
| O=C(O)c1cc(NC(=S)NCCCCCCOP(=O)(O)OP(=O)(O)OCC2OC(n3ccc(=O)[nH]c3=O)C(O)C2O)ccc1-c1c2ccc(=O)cc-2oc2cc(O)ccc12 (stereo unspecified) [Fluorescent Probe 1] | 0.1 | 0.16 | – | 5.7 |
| O=C1Nc2ccc([N+](=O)[O-])cc2/C1=C1/SC(=S)N(C(Cc2ccccc2)C(=O)O)C1=O (stereo unspecified) [Thiazolidinone core, 30] | 5.7 | 10 | – | > 100 |
| O=C(O)C(Cc1ccccc1)N1C(=O)/C(=C\c2ccccc2Br)SC1=S (stereo unspecified) [Thiazolidinone core, 25] | > 33 | > 33 | – | – |
| O=C(O)[C@H](Cc1ccccc1)N1C(=O)/C(=C/c2ccc(Br)cc2)SC1=S [Thiazolidinone core, 24] | > 33 | 9.3 | – | 35 |
| O=C(O)CN1C(=O)/C(=C2/C(=O)Nc3ccccc32)SC1=S [Thiazolidinone core, 18] | > 33 | > 330 | – | – |
| CC(C(=O)O)N1C(=O)/C(=C\c2cccc(Br)c2)SC1=S (stereo unspecified) [Thiazolidinone core, 16] | > 33 | > 330 | – | – |
| O=C1Nc2ccccc2/C1=C1/SC(=S)N(C(Cc2ccc(O)cc2)C(=O)O)C1=O (stereo unspecified) [Thiazolidinone core, 20] | 14.1 | > 33 | – | – |
| NS(=O)(=O)c1ccc(N2N=C(C(F)(F)F)/C(=C/c3ccc(-c4ccc5c(c4)C(=O)NC5=O)o3)C2=O)cc1 [Pyrazol analog, 2] | 1.5 | – | – | – |
| O=c1/c(=C/c2cc([N+](=O)[O-])c(O)cc2Cl)sc2nc3ccccc3n12 [Thiazolidinone core, 10] | – | 5.3 | 4 | 0.028 |
| CCOC(=O)c1ccc(-c2ccc(/C=C3\C(=O)N(c4ccc(S(N)(=O)=O)cc4)N=C3C(F)(F)F)o2)cc1 [Pyrazol analog, 3] | 3.1 | – | – | – |
| Cc1cccc(/C=C2/SC(=S)N(C(Cc3ccccc3)C(=O)O)C2=O)c1 (stereo unspecified) [Thiazolidinone core, 27] | > 33 | > 33 | – | – |
